Assays:
[1] = molecular target: T1, tyrosine decarboxylase (TyrDC) (Enterococcus faecalis, UniProt P0DTQ4)
T1 sequence (P0DTQ4 1-620): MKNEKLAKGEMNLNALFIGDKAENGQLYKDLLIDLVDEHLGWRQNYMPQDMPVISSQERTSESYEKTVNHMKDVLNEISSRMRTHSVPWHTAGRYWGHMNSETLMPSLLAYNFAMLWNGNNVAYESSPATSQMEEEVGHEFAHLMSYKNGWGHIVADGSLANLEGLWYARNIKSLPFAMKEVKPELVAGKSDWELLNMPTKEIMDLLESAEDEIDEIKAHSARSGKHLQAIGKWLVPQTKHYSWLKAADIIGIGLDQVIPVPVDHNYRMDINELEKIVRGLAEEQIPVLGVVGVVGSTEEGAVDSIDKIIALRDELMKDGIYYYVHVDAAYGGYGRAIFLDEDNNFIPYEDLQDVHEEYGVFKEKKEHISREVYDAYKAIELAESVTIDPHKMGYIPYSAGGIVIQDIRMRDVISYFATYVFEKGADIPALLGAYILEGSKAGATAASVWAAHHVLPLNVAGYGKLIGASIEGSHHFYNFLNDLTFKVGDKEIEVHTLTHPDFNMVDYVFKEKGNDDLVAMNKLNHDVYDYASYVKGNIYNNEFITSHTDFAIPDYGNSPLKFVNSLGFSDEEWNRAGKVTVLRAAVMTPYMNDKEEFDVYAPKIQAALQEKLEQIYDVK

[2] = molecular target: T1, tyrosine decarboxylase (TyrDC); assay: enzyme kinetics of TyrDC in vitro; type: biochemical

With `N[C@@H](Cc1ccc(O)c(O)c1)C(=O)O` [L-dopa] as the molecule, how does the Km [1] read?
The Km was 1500 µM.

With `N[C@@H](Cc1ccc(O)cc1)C(=O)O` [L-tyrosine] as the molecule, how does the “enzyme kinetics of TyrDC in vitro” value [2] read?
Its value is “In vitro characterization of TyrDC revealed a fivefold higher catalytic efficiency toward L-tyrosine compared with L-dopa”.
